Patent US4816490A, “Novel therapeutic use of a derivative of indane dione and the pharmaceutical compositions intended for this use” (priority 1987, dated 1989)

Columns and labels:
[1] = system: male and female mice of Swiss strain; test: Acute toxicity after single intraperitoneal administration; assay type: in vivo; conditions: IP
From the text: (§1) Male and female mice of Swiss strain weighing from 22 to 25 g of body weight were free of pathogen specific organisms (EOPS), stemming from breeding CERJ (53860 LE GENEST (France) and acclimated for at least 8 days in the animalry of the firm.
(§2) Except where stipulated to the contrary, in the tables giving the results, 10 animals of the same sex for each dose were housed in cages of MAKROLON (Safi) of 40 cm by 25 cm filled with shaving of wood. Standard feeding for rats and mice, tablets UAR and tap water ad libitum.
(§3) The compounds were administered without previous fasting either orally (gastric tubing using a metallic oesophageous sonde) at a rate of 0.5 ml or 1 ml per 20 g of body weight of an aqueous suspension of the test compound in a 3% solution of arabic gum, or intraperitoneally at a rate of 0.5 ml or 1 ml per 20 g of body weight of the test compound suspended in an isotonic saline solution containing 3% of arabic gum.
(§4) For 6 days after the single administration and then every day for 15 days.
(§5) When necessary, the mean lethal doses (LD 50) were calculated by the method of Behrens and Karber (BK) and Miller and Tainter (MT). The latter allowing to supply with, for the threshold of probability P=0.05 a limit of confidence for the LD 50. Further calculated were the LDo i.e. DMT=maximal doses always tolerated and the LD100 i.e. DMM=minimal doses always lethal.

[2] = system: male and female mice of Swiss strain; test: Acute toxicity after single oral administration; assay type: in vivo; conditions: for Deaths / toxic symptoms: single dose 10 g/kg
From the text: as §1, §2, §3, §4, §5
The compound was administered in a single dose to batches of 10 male or female mice weighing […] at a rate of 1 ml per 20 g of body weight.

[3] = system: hyperlipidaemia / atheroma in Wistar rats on atheromatogenous regimen; test: Biochemical testings in rats on atheromatogenous (cholesterol-rich) diet, including atheroma risk ratios; assay type: in vivo, rat
From the text: (§6) The method utilized for the test was that, slightly altered of Aubert D. Feraud J. C., Lacaze B., Pepino., Ponak E. et Podesta M. as described in Atherosclerosis, Vol. 20 (1974), p. 263-280 (Experimental Atherogenesis in the Wistar Rat).
(§7) Female rats of Wistar strain, free of specific pathogenic germs (EOPS) stemming from the breeding EVIC-CEBA
Mean body weight: 160-180 g at the start of the test
(§8) Diet: standard tablets UAE AO 3 enriched in cholesterol (0.5%) and in cholic acid (0.5).
15 animals per each batch and by cage in MACROLON (Safi) of 59 cm×38 cm, 5 cm filled with a litter of shavings of wood.
(§9) Diet of the animals: the animals were given the atheromatogenous regimen then while maintaining the same regimen, they were given for 4 days 250,000 IU/kg of vitamin D2 dissolved in olive oil (Sterogyl 15H). The compounds to be tested were given thereafter for 4 weeks immediately after the termination of the atheromatogenous regimen.
At the end of these studies the following tests were performed on all surviving animals.
Esterified blood cholesterol
Cholesterol in LDL (estimate)
The total score for each product was obtained by adding each individual scores and allowed the following classification
The protection against the atheromatogenous risk was evaluated using the following ratios: […]

[4] = system: atheromatous deposits of the aorta, Wistar rats; test: Macroscopic examination of aorta atheroma in rats on atheromatogenous diet; assay type: in vivo, rat
From the text: as §6, §8
After the studies, all the animals were sacrificed by subtotal puncture of the blood in the abdominal aorta after anesthesia by intravenous sodium Pentobarbital. The hearts, livers, aortas on which the score of atheroma was determined were taken. For this purpose, the aortas were longitudinally cut, then spread to allow a whole insight of the endothelial coating from the aortic valves until the branching of the coeliac stem (lower portion of the thoracic aorta).
Aorta was from an anatomic point of view divided into two parts:
Zone 1: aortic valves-first intercostal arters
Zone 2: first intercostal arters and branching of the coeliac stem
The intensity of the atheromatous deposits was determined according to the following scores:
Score 1: Discrete (<1 mm) and few deposit
Score 2: Numerous and discrete deposits
Score 3: Numerous and marked deposits (<1 mm)
Score 4: Very marked deposits or very numerous deposits but letting some uninfiltrated areas
Score 5: Deposits on the whole epithelium
Two parameters were considered:
the intensity of the observed damages determined according to the previously-given scores.

[5] = system: female rats of Wistar strain; test: Tolerance, mortality and body weight in the rat atheroma study; conditions: 100 mg/kg
From the text: as §7, §9
The behavior and the changes in weight of the animals were surveyed every day as well as by weekly weighing.

[6] = system: atheroma / hyperlipidaemia in Wistar rats on atheromatogenous regimen; test: Overall hypolipaemiant and anti-atheromatous classification (summarized scores); assay type: in vivo, rat; conditions: 100 mg/kg
From the text: as §6, §7, §8, §9

[7] = Anti-lipaemiant activity (general statement); assay type: in vivo; conditions: read-out: Dose from which a clear anti-lipaemiant activity is shown
[8] = same doses, cholesterol-rich diet

For COc1ccc(C(=O)CC2(O)C(=O)c3ccccc3C2=O)cc1OC [Compound of the invention, 2-[(3,4-dimethoxy-benzoyl)-methyl]-2-hydroxy-1,3-dioxo Indane], the Symptoms after injection [1] was “crawling after the injection then a protracted prostation took place with piloerection and bradypnea cyanosis”, the “Mortality in 10 mice” value ([1]; 2000 mg/kg, females) was 0 and the “Mortality in 10 mice” value ([1]; 2000 mg/kg, males) was 0. The “Mortality in 10 mice” value ([1]; 2500 mg/kg, females) was 1, the “Mortality in 10 mice” value ([1]; 2500 mg/kg, males) was 1 and the “Mortality in 10 mice” value ([1]; 3000 mg/kg, females) was 6. For the same compound, the “Mortality in 10 mice” value ([1]; 3000 mg/kg, males) was 3, the Late mortalities ([1]; 3 to 4 g/kg, after 5 to 7 days) was “generally 1 death per dose for each sex” and the “Mortality in 10 mice” value ([1]; 3500 mg/kg, females) was 8. The “Mortality in 10 mice” value ([1]; 3500 mg/kg, males) was 5, the “Mortality in 10 mice” value ([1]; 4000 mg/kg, females) was 10 and the “Mortality in 10 mice” value ([1]; 4000 mg/kg, males) was 8. For the same compound, the “Mortality in 10 mice” value ([1]; 4500 mg/kg, females) was 10, the “Mortality in 10 mice” value ([1]; 4500 mg/kg, males) was 10 and the “Mortality in 10 mice” value ([1]; 5000 mg/kg, females) was 10. The “Mortality in 10 mice” value ([1]; 5000 mg/kg, males) was 10, the “LD100 (minimal dose always lethal)” value ([1]; female mice) was 4000 mg/kg and the “LDo (maximal dose always tolerated)” value ([1]; female mice) was 2000 mg/kg. For the same compound, the “LD100 (minimal dose always lethal)” value ([1]; male mice) was 4500 mg/kg, the “LDo (maximal dose always tolerated)” value ([1]; male mice) was 2000 mg/kg and the “Toxicity in comparison with Clofibrate” value ([1]; single administration) was “markedly less toxic than Clofibrate”. The Toxicity ([2]; general statement) was “very low toxicity”, the LD100 ([2]; oral, male or female mice) was greater than 10 g/kg and the LDo ([2]; oral, male or female mice) was 10 g/kg. The “Deaths / toxic symptoms” value ([2]; oral, male or female mice) was “no toxicity even at a dose of 10 g/kg”, the “Deaths / toxic symptoms” value ([2]; oral, male or female mice, listed as test compound) was “no deaths nor toxic symptoms appeared” and the “Toxicity in comparison with Clofibrate” value ([2]; single administration, orally or parenterally) was “less toxic than Clofibrate”. For the same compound, the “Cholesterol in LDL / Cholesterol in HDL, % in comparison with Controls-Diet” value ([3]; 100 mg/kg) was -36.10%, the “Total Blood Cholesterol / Cholesterol in HDL, % in comparison with Controls-Diet” value ([3]; 100 mg/kg) was -33.22% and the “Cholesterol in HDL, variation in comparison to controls-Diet” value ([3]; 100 mg/kg, 4 weeks) was -33.33%. The “Esterified cholesterol, variation in comparison to controls-Diet” value ([3]; 100 mg/kg, 4 weeks) was -57.70%, the “Total Blood lipids, variation in comparison to controls-Diet” value ([3]; 100 mg/kg, 4 weeks) was -48.47% and the “Total blood cholesterol, variation in comparison to controls-Diet” value ([3]; 100 mg/kg, 4 weeks) was -55.47%. For the same compound, the “Triglycerids, variation in comparison to controls-Diet” value ([3]; 100 mg/kg, 4 weeks) was -25.86%, the “Cholesterol in LDL, variation in comparison to controls-Diet” value ([3]; 100 mg/kg, 4 weeks, LDL (estimate)) was -57.41% and the “Atheromatous risk total score” value ([3]; 100 mg/kg, listed as Compound according to this invention) was 0.90. The “Atheromatous risk total score” value ([3]; 100 mg/kg, listed as Compound of this invention) was 0.90, the “Activity on the biochemical level vs Clofibrate” value [3, 8] was “as active as Clofibrate on the biochemical level” and the “Macroscopical examination total score” value ([4]; 100 mg/kg) was 2.57. The “Damaged animals, % of decrease in comparison with Controls-Diet” value ([4]; 100 mg/kg, macroscopical) was -30.77%, the “Damaged animals, percentage” value ([4]; 100 mg/kg, macroscopical) was 69.23% and the “Damaged animals, score in relation to Clofibrate” value ([4]; 100 mg/kg, macroscopical) was 1.69. For the same compound, the “Intensity of the damages, % of decrease in comparison with Controls-Diet” value ([4]; 100 mg/kg, macroscopical) was -22.68%, the “Intensity of the damages, score in relation to Clofibrate” value ([4]; 100 mg/kg, macroscopical) was 0.88 and the “Frequency of macroscopic damages” value ([4]; cholesterol-rich diet) was “a lower frequency of macroscopic damages”. The “Intensity of observed damages” value ([4]; cholesterol-rich diet) was “a lower intensity of the observed damages”, the “Activity on macroscopic damages vs Clofibrate” value [4, 8] was “more active when evaluating the macroscopic damages” and the “Mortality compared with batch No. 2 (2/15)” value ([5]; 4 weeks, atheromatogenous regimen) was “did not increase it”. For the same compound, the “Tolerance compared with Clofibrate” value ([5]; rat, in vivo) was “better tolerated”, the “Classification of the anti-atheromatous action” value [6] was “Compound of the invention>Fenofibrate>Clofibrate” and the “Hypolipaemiant and anti-atheromatous activity” value [6] was “marked hypolipaemiant and anti-atheromatous activity, very close to Clofibrate (100 mg/kg) and far better than those of Fenclofibrate (100 mg/kg)”. It also gave a minimal effective dose [7] of no less than 100 mg/kg.
